Reference: patent publication US5876694A, “Azavesamicols” (priority 1997, dated 1999)
Like-named read-outs stand apart in the source and are kept apart here.

Key:
Format in all cases: in vivo, male Wistar rats
[1] = Tissue distribution of radiotracer in rats; settings: for tissue uptake at 3 h / tissue uptake at 5 min / tissue uptake at 0.5 h / tissue uptake at 1 h: rat, iv; for tissue uptake at 3 h: 180 min; for tissue uptake at 0.5 h: 30 min; for tissue uptake at 1 h: 60 min
Experimental: Tissue Distribution Experiments
Four groups of male Wistar rats (n=4) weighing 200-350 g were used in these experiments. Each animal received, while under ether anesthesia, an intravenous injection of the radiotracer (3-5 uCi) dissolved in 0.1 mL of 50% aqueous ethanol. At 5, 30, 60 and 180 min post-injection, blood was collected from the anesthetized animal by cardiac puncture, and the animal was immediately sacrificed by cardiectomy. The organs and tissues of interest were harvested, transferred to preweighed tubes and counted in a Beckman gamma counter. The tubes were subsequently reweighed to give the weight of the corresponding tissues. Preweighed tubes containing 1 mL samples of a 1:100 dilution of the injected dose were also counted and used as reference for calculating the tissue accumulation of radioactivity. The accumulation of radiotracer was expressed as a percentage of injected dose per gram of tissue.
The animals were injected intravenously with 4.9 uCi of the radiotracer i
0.1 ml of 50% aq. EtOH.
The animals were injected with 3.7 uCi of the radiotracer in 0.1 ml of 50

vesamicol receptor = experiment: Blocking experiment 1: co-injection of (dl)-vesamicol with radiotracer; settings: 60 min, iv
Experimental: (§1) Two separate experiments each utilizing two groups of male Wistar rats (n=3) were performed.
(§2) Experiment 1. Animals in Group 1 (control) each received an intravenous injection of the radiotracer (4.7 uCi in 100 uL of 50% aq. EtOH). […] At 60 min post-injection, the animals were sacrificed and the tissues were harvested as outlined above.
(§3) Animals in Group 1 received a single i.v. injection of radiotracer.
(§4) Animals in Group 2 were administered with a mixture of the radiotracer an
(§5) All animals were sacrificed a
(§6) 60 min postradiotracer injection.

[2] = as above; settings: rat, iv, 60 min
Experimental: as §1, §2, §3, §4, §5, §6

[3] = kidney, read-out: Tissue distribution, kidney
[4] = liver, read-out: Tissue distribution, liver
[5] = lung, read-out: Tissue distribution, lung
[6] = muscle, read-out: Tissue distribution, muscle
[7] = spleen, read-out: Tissue distribution, spleen
[8] = thyroid, read-out: Tissue distribution, thyroid
[9] = Group 2: with (dl)vesamicol hydrochloride

Compound `O[C@@H]1CCN(Cc2cccc([125I])c2)C[C@H]1N1CCC(c2ccccc2)CC1` (single isomer, unassigned) [(-)-[^125 I]12h, (+)- and (-)-4-hydroxy-1-(3-[I^125]iodobenzyl)-3-(4-phenyl-piperidinyl)piperidine] has a tissue uptake at 3 h ([1]; heart, read-out: Tissue distribution, heart) of 0.5 %ID/g, a tissue uptake at 5 min [1, 3] of 3.71 %ID/g and a tissue uptake at 0.5 h [1, 3] of 3.53 %ID/g. The tissue uptake at 1 h [1, 3] was 3.13 %ID/g, the tissue uptake at 3 h [1, 3] was 3.27 %ID/g and the tissue uptake at 5 min [1, 4] was 2.07 %ID/g. It also gave a tissue uptake at 0.5 h [1, 4] of 2.35 %ID/g, a tissue uptake at 1 h [1, 4] of 2.63 %ID/g and a tissue uptake at 3 h [1, 4] of 2.23 %ID/g. For the same compound, the tissue uptake at 5 min [1, 5] was 5.9 %ID/g, the tissue uptake at 0.5 h [1, 5] was 3.21 %ID/g and the tissue uptake at 1 h [1, 5] was 2.41 %ID/g. It also gave a tissue uptake at 3 h [1, 5] of 2.01 %ID/g, a tissue uptake at 5 min [1, 6] of 0.46 %ID/g and a tissue uptake at 0.5 h [1, 6] of 0.3 %ID/g. It also gave a tissue uptake at 1 h [1, 6] of 0.28 %ID/g, a tissue uptake at 3 h [1, 6] of 0.27 %ID/g and a tissue uptake at 5 min [1, 7] of 1.04 %ID/g. The tissue uptake at 0.5 h [1, 7] was 1.24 %ID/g, the tissue uptake at 1 h [1, 7] was 1.17 %ID/g and the tissue uptake at 3 h [1, 7] was 1.28 %ID/g. For the same compound, the tissue uptake at 5 min [1, 8] was 2.67 %ID/g, the tissue uptake at 0.5 h [1, 8] was 3.15 %ID/g and the tissue uptake at 1 h [1, 8] was 5.87 %ID/g. For the same compound, the tissue uptake at 3 h [1, 8] was 11.6 %ID/g, the “brain level over time (in words)” value ([1]; throughout the study (5 to 180 min)) was “remained essentially unchanged” and the “Blocking study, ratio brain/blood” value (vesamicol receptor; Group 1: radiotracer alone) was 10.44. The “Blocking study, ratio heart/blood” value (vesamicol receptor; Group 1: radiotracer alone) was 5.37, the “Blocking study, ratio brain/blood” value (vesamicol receptor; [9]) was 3.30 and the “Blocking study, ratio heart/blood” value (vesamicol receptor; [9]) was 1.87. It also gave a tissue uptake at 1 h ([2]; blood, Group 1: radiotracer alone, read-out: Blocking study, blood) of 0.09 %ID/g, a tissue uptake at 1 h ([2]; blood, Group 2: with (dl)vesamicol hydrochloride, read-out: Blocking study, blood) of 0.09 %ID/g and a tissue uptake at 1 h ([2]; brain, Group 1: radiotracer alone, read-out: Blocking study, brain) of 0.97 %ID/g. It also gave a tissue uptake at 1 h ([2]; brain, Group 2: with (dl)vesamicol hydrochloride, read-out: Blocking study, brain) of 0.29 %ID/g, a tissue uptake at 1 h ([2]; gonads, Group 1: radiotracer alone, read-out: Blocking study, gonads) of 0.21 %ID/g and a tissue uptake at 1 h ([2]; gonads, Group 2: with (dl)vesamicol hydrochloride, read-out: Blocking study, gonads) of 0.22 %ID/g. It also gave a tissue uptake at 1 h ([2]; heart, Group 1: radiotracer alone, read-out: Blocking study, heart) of 0.5 %ID/g, a tissue uptake at 1 h ([2]; heart, Group 2: with (dl)vesamicol hydrochloride, read-out: Blocking study, heart) of 0.16 %ID/g and a tissue uptake at 1 h ([2]; kidney, Group 1: radiotracer alone, read-out: Blocking study, kidney) of 3.11 %ID/g. It also gave a tissue uptake at 1 h ([2]; kidney, Group 2: with (dl)vesamicol hydrochloride, read-out: Blocking study, kidney) of 0.89 %ID/g, a tissue uptake at 1 h ([2]; liver, Group 1: radiotracer alone, read-out: Blocking study, liver) of 2.45 %ID/g and a tissue uptake at 1 h ([2]; liver, Group 2: with (dl)vesamicol hydrochloride, read-out: Blocking study, liver) of 2.31 %ID/g. It also gave a tissue uptake at 1 h ([2]; lung, Group 1: radiotracer alone, read-out: Blocking study, lung) of 1.96 %ID/g, a tissue uptake at 1 h ([2]; lung, Group 2: with (dl)vesamicol hydrochloride, read-out: Blocking study, lung) of 0.76 %ID/g and a tissue uptake at 1 h ([2]; muscle, Group 1: radiotracer alone, read-out: Blocking study, muscle) of 0.26 %ID/g. The tissue uptake at 1 h ([2]; muscle, Group 2: with (dl)vesamicol hydrochloride, read-out: Blocking study, muscle) was 0.12 %ID/g, the tissue uptake at 1 h ([2]; spleen, Group 1: radiotracer alone, read-out: Blocking study, spleen) was 1.1 %ID/g and the tissue uptake at 1 h ([2]; spleen, Group 2: with (dl)vesamicol hydrochloride, read-out: Blocking study, spleen) was 0.58 %ID/g. The tissue uptake at 1 h ([2]; thyroid, Group 1: radiotracer alone, read-out: Blocking study, thyroid) was 5.58 %ID/g and the tissue uptake at 1 h ([2]; thyroid, Group 2: with (dl)vesamicol hydrochloride, read-out: Blocking study, thyroid) was 6.55 %ID/g.
